We go through 21 molecules from publication PMC6309140, “Synthesis and Evaluation of a New Type of Small Molecule Epigenetic Modulator Containing Imidazo[1,2-b][1,2,4]triazole Motif” (Frontiers in Chemistry, 2018).

The subject of data set [1] is EGFP reporter gene silenced by DNA methylation (B2-17 cells). Description: Compound effective assay: derepression of EGFP reporter in B2-17 reporter cells (image-based, titration). The class given is cell-based. To be noted: for Emax: 72 h, read-out: Maximal RGFP% (maximal percentage of EGFP+ cells in the dose-response curve); for Emax / EC50 / Maximal RGFP% (maximal percentage of EGFP+ cells in the dose-response curve): B2-17 cells, 72 h treatment; for EC50: dose-response of EGFP+ cells, read-out: EC50 (relative half maximal effect concentration); for activity of derepressing the EGFP reporter gene silenced by DNA methylation (in words): compared with hit compound LX-3. The text has this:
(§1) To identify novel small molecules targeting gene repression, we devised an image-based high-throughput screening system using the engineered HEK 293 F cell (termed as B2-17 cells) as report cell line. A chemical library containing 308,251 small molecules was screened in this system. Purposed for unbiased compound screening, this library had been used in a variety of studies (Sun et al., [2012]; Wang et al., [2013]; Dong et al., [2015]; Li et al., [2016]). Hundred and fifty eight compounds which reactivated reporter genes in more than half of cells were selected as hits. Next, we performed titration experiments for all these hits in the B2-17 cell line. The efficacy of each compound was evaluated by its maximal percentage of EGFP^+ cells in the dose-response curve (maximal RGFP) and relative half maximal effect concentration (EC50). The toxicity of the hits was also tested in parallel, measured by number of viable cells in each treatment. The assay is based on quantitative analysis of ATP, an indicator of metabolically active cells. For each compound, we calculated the relative half maximal growth inhibitory concentration (IC50), based on the abovementioned assay.
Procedure for cell culture and establishment of the reporter cell line were reported in our previously published paper (Li et al., [2018]).
Before plating cells, 384-well plates (ViewPlate, PerkinElmer) were coated with PDL (poly-D-lysine, Sigma). For each well, 1,300 B2-17 cells were plated by using a Matrix Wellmate microplate dispenser (Thermo Scientific). Then, 0.25 μL of compound was added to each well by using a versatile pipetting robot, the Biomek FX workstation (Beckman Coulter), to give a final compound concentration of 5 μM. After treatment for 72 h, the cell nuclei were stained by Hoechst 33342 (Sigma) before imaging.
The cells were imaged with Opera LX (PerkinElmer, three views per well by using 10 x (air) objective lens). Images were analyzed with the Columbus system, the mean percentage of EGFP+ cells (RGFP) was obtained to extrapolate the number of EGFP expressing cells and Hoechst-stained nuclei.
For the titration assay, the positive compounds were diluted in DMSO at concentrations ranging from 0.625 to 4 mM. Then, the B2-17 cells were treated by gradient compound and imaged as described before.
For each compound, a dose-response series was generated by using Origin 6.0 Pro software. The dot plot was fit by a DoseResp curve and then the EC50 was calculated.

The test system of the next data set is HEK 293 F cells. Kind of data set: Viability assays (CellTiter-Glo, ATP). The class given is cell-based. To be noted: for IC50: viable cells by ATP quantitation, 3 days incubation, Figure 2 says B2-17 cells, method says HEK 293 F cells, read-out: IC50 (relative half maximal growth inhibitory concentration).
Description: as §1
HEK 293 F cells were plated in 384-well, flat-bottom, tissue culture dishes (Corning) and treated with compounds, incubated 3 days, and assayed for viability using the CellTiter-Glo Luminescent Cell Viability Assay (Promega) according to the manufacturer's protocol. The […] with an EnSight plate reader (Perkin Elmer). Data were normalized to the untreated control (100% viability). Each treatment was tested in two independent assays, each containing 3 replicates. The titration-viability curves of each compound were also generated by using Origin 6.0 Pro software.

“Also recorded” adds a separate entry of the source. Like-named read-outs stand apart in the source and are kept apart here. Some results are limits rather than exact numbers.

With `COc1ccc(NC(=O)c2ccco2)cc1NC(=O)c1ccc(-c2cccc([N+](=O)[O-])c2)o1` [LX-7], in data set [1], the Emax came out at 79% and the EC50 amounted to 1.9 µM. For the same molecule, in the data set with HEK 293 F cells (HEK293F, 72 h), the IC50 came to 3.2 µM.

Take `Cc1cc2c(cc1C)n1nc(-c3cccs3)nc1n2CC(=O)c1ccc(Br)cc1` [14a, 1-(4-bromophenyl)-2-(6,7-dimethyl-2-(thiophen-2-yl)-4H-benzo[4,5]imidazo[1,2-b][1,2,4]triazol-4-yl)ethan-1-one]: in data set [1], the Emax was 26%, the EC50 came out at 28 µM and the “activity of derepressing the EGFP reporter gene silenced by DNA methylation (in words)” value (“activity” for short) was “significantly decreased”. The IC50 with HEK 293 F cells (HEK293F, 72 h) amounted to 3.9 µM.

For the molecule `O=C(Cn1c2ccccc2n2nc(-c3ccccn3)nc12)c1ccc(Br)cc1` [22e, 1-(4-bromophenyl)-2-(2-(pyridin-2-yl)-4H-benzo[4,5]imidazo[1,2-b][1,2,4]triazol-4-yl)ethan-1-one], the Emax in data set [1] worked out at 6%. Further, the IC50 in the data set with HEK 293 F cells (HEK293F, 72 h) was 2.8 µM.

Regarding `COc1ccc(C(=O)Cn2c3ccccc3n3nc(-c4cccs4)nc23)cc1` [7b, 1-(4-methoxyphenyl)-2-(2-(thiophen-2-yl)-4H-benzo[4,5]imidazo[1,2-b][1,2,4]triazol-4-yl)ethan-1-one], in data set [1], the Emax came out at 23%, the EC50 came to 6.2 µM and the “activity” value is “decreased to some extent”. The IC50 in the data set with HEK 293 F cells (HEK293F, 72 h) turned out to be 3.1 µM.

Turning to `Cc1ccc(-c2ccc(-c3nc4n(CC(=O)c5ccc(Br)cc5)c5ccccc5n4n3)s2)cc1` [compound 25, 1-(4-bromophenyl)-2-(2-(5-(p-tolyl)thiophen-2-yl)-4H-benzo[4,5]imidazo[1,2-b][1,2,4]triazol-4-yl)ethan-1-one], in data set [1], the Emax was determined as 61%, the EC50 was 29.9 µM and the “activity” value is recorded as “significant decrease or disappearance”. The IC50 in the data set with HEK 293 F cells (HEK293F, 72 h) amounted to 10.9 µM.

For `O=C(Cn1c2ccc(Br)cc2n2nc(-c3cccs3)nc12)c1ccc(Br)cc1` [17a, 2-(7-bromo-2-(thiophen-2-yl)-4H-benzo[4,5]imidazo[1,2-b][1,2,4]triazol-4-yl)-1-(4-bromophenyl)ethan-1-one], in data set [1], the Emax was determined as 41%, the EC50 is 19.4 µM and the “activity” value is “significantly decreased”. Besides, the IC50 with HEK 293 F cells (HEK293F, 72 h) was 6.6 µM.

Regarding `O=C(Cn1c2ccccc2n2nc(-c3cccs3)nc12)c1ccc(C(F)(F)F)cc1` [7e, 2-(2-(thiophen-2-yl)-4H-benzo[4,5]imidazo[1,2-b][1,2,4]triazol-4-yl)-1-(4-(trifluoromethyl)phenyl)ethan-1-one], in data set [1], the Emax was 81%, the EC50 worked out at 3.7 µM and the “activity” value is “remained the same”. For the same molecule, in the data set with HEK 293 F cells (HEK293F, 72 h), the IC50 was determined as 4.7 µM.

As for `O=C(Cn1c2ccc(Cl)cc2n2nc(-c3cccs3)nc12)c1ccc(Br)cc1` [compound 19, 1-(4-bromophenyl)-2-(7-chloro-2-(thiophen-2-yl)-4H-benzo[4,5]imidazo[1,2-b][1,2,4]triazol-4-yl)ethan-1-one], in data set [1], the Emax came to 63%, the EC50 was found to be 14.9 µM and the “activity” value is reported as “significantly decreased”. In addition, in the data set with HEK 293 F cells (HEK293F, 72 h), the IC50 was determined as 14.3 µM.

`O=C(Cn1c2ccccc2n2nc(-c3cccs3)nc12)c1nccs1` [9a, 1-(thiazol-2-yl)-2-(2-(thiophen-2-yl)-4H-benzo[4,5]imidazo[1,2-b][1,2,4]triazol-4-yl)ethan-1-one]: in data set [1], the Emax came out at 30% and the EC50 is 4.7 µM. In addition, the IC50 in the data set with HEK 293 F cells (HEK293F, 72 h) worked out at 8.7 µM.

As for `O=C(Cn1c2ccccc2n2nc(-c3cccs3)nc12)c1ccc(F)cc1F` [7f, 1-(2,4-difluorophenyl)-2-(2-(thiophen-2-yl)-4H-benzo[4,5]imidazo[1,2-b][1,2,4]triazol-4-yl)ethan-1-one], in data set [1], the Emax is 16% and the “activity” value was “significantly decreased”. In addition, the IC50 in the data set on HEK 293 F cells (HEK293F, 72 h) was 17.8 µM.

As for `Cc1ccsc1-c1nc2n(CC(=O)c3ccc(Br)cc3)c3ccccc3n2n1` [22d, 1-(4-bromophenyl)-2-(2-(3-methylthiophen-2-yl)-4H-benzo[4,5]imidazo[1,2-b][1,2,4]triazol-4-yl)ethan-1-one], in data set [1], the Emax came to 19% and the “activity” value was “disappeared”. Further, the IC50 in the data set with HEK 293 F cells (HEK293F, 72 h) was 12.3 µM.

`O=C(Cn1c2ccccc2n2nc(-c3cccs3)nc12)c1ccco1` [9b, 1-(furan-2-yl)-2-(2-(thiophen-2-yl)-4H-benzo[4,5]imidazo[1,2-b][1,2,4]triazol-4-yl)ethan-1-one]: the Emax in data set [1] was 6.6%.

Regarding `COC(=O)c1ccc(C(=O)Cn2c3ccccc3n3nc(-c4cccs4)nc23)cc1` [7d, methyl 4-(2-(2-(thiophen-2-yl)-4H-benzo[4,5]imidazo[1,2-b][1,2,4]triazol-4-yl)acetyl)benzoate], in data set [1], the Emax was determined as 73%, the EC50 is 2.4 µM and the “activity” value is reported as “significantly increased; also recorded: slightly better activity”. For the same molecule, the IC50 with HEK 293 F cells (HEK293F, 72 h) turned out to be 10.2 µM. In addition, the “toxicity (in words)” value in the data set with HEK 293 F cells (compared with hit compound LX-3) is given as “less toxicity”.

On to “(4-bromophenyl) (2-(thiazol-2-yl)-4H-benzo[4,5] imidazo[1,2-b][1,2,4]triazol-4-yl)methanone [31a]”, for which, in data set [1], the “Maximal RGFP% (maximal percentage of EGFP+ cells in the dose-response curve)” value came out at 4.0% and the “activity” value was “disappeared”. In addition, the IC50 in the data set on HEK 293 F cells is 7.8 µM.

“2-(4-bromophenyl)-1-(2-(thiazol-2-yl)-4H-benzo[4,5] imidazo[1,2-b][1,2,4]triazol-4-yl)ethan-1-one [31b]”: in data set [1], the “Maximal RGFP% (maximal percentage of EGFP+ cells in the dose-response curve)” value is 6.0% and the “activity” value is recorded as “loss of activity”. Also, the IC50 in the data set with HEK 293 F cells is 11.5 µM.

On to `O=C(Cn1c2ccccc2n2nc(Cc3ccccc3)nc12)c1ccc(Br)cc1` [22f, 2-(2-benzyl-4H-benzo[4,5]imidazo[1,2-b][1,2,4]triazol-4-yl)-1-(4-bromophenyl)ethan-1-one], for which, in data set [1], the Emax was below 22% and the EC50 was 6.4 µM. Besides, in the data set on HEK 293 F cells (HEK293F, 72 h), the IC50 was 4.7 µM.

Consider `C=CCc1cc(/C=N/Nc2ccc(Br)cc2)cc(OCC)c1OC` [LX-1], for which, in data set [1], the Emax is 72% and the EC50 was found to be 1.9 µM. The IC50 with HEK 293 F cells (HEK293F, 72 h) was 8.5 µM.

Take `O=C(Cn1c2ccccc2n2nc(-c3cccs3)nc12)c1ccc([N+](=O)[O-])cc1` [7c, 1-(4-nitrophenyl)-2-(2-(thiophen-2-yl)-4H-benzo[4,5]imidazo[1,2-b][1,2,4]triazol-4-yl)ethan-1-one]: in data set [1], the Emax was 41%, the EC50 turned out to be 14.9 µM and the “activity” value is “decreased to some extent”. Moreover, the IC50 in the data set with HEK 293 F cells (HEK293F, 72 h) was 11.9 µM.

In the case of `O=C(Cn1c2ccccc2n2nc(-c3nccs3)nc12)c1ccc(Br)cc1` [22c, 1-(4-bromophenyl)-2-(2-(thiazol-2-yl)-4H-benzo[4,5]imidazo[1,2-b][1,2,4]triazol-4-yl)ethan-1-one], in data set [1], the Emax turned out to be 48% and the EC50 was 4.5 µM. Further, in the data set on HEK 293 F cells (HEK293F, 72 h), the IC50 was 5.3 µM.

Take `CC(C)(C)c1nc2n(CC(=O)c3ccc(Br)cc3)c3ccccc3n2n1` [22g, 1-(4-bromophenyl)-2-(2-(tert-butyl)-4H-benzo[4,5]imidazo[1,2-b][1,2,4]triazol-4-yl)ethan-1-one]: in the data set with HEK 293 F cells (HEK293F, 72 h), the IC50 stood at 8.3 µM.

As for `N#Cc1ccc(-c2nc3n(CC(=O)c4ccc(Br)cc4)c4ccccc4n3n2)s1` [compound 27, 5-(4-(2-(4-bromophenyl)-2-oxoethyl)-4H-benzo[4,5]imidazo[1,2-b][1,2,4]triazol-2-yl)thiophene-2-carbonitrile], in data set [1], the Emax came to 6% and the “activity” value is “significant decrease or disappearance”.
